{"source": "patent US8063225B2", "about": "“Tricyclic compound derivatives useful in the treatment of neoplastic diseases, inflammatory disorders and immunomodulatory disorders” (Chembridge Corporation, priority 2006, dated 2011)", "key": {"InsR": {"biological_target": "T1, InsR (Homo sapiens, UniProt P06213)", "T1 construct": "6×His- or GST-tagged kinase domain fragments of the corresponding RTKs expressed in baculovirus system; host or cells: baculovirus system", "T1 sequence (P06213 1023-1298 limits assumed, species assumed)": "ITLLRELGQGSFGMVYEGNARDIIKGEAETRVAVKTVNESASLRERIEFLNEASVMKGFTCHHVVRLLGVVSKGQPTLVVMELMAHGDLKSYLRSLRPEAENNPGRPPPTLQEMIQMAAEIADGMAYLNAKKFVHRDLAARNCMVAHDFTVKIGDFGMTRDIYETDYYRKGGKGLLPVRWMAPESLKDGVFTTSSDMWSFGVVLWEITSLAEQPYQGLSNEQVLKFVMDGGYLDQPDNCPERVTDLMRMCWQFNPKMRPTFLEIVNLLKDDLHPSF", "assay": "Tyrosine kinase assay (Kinase-Glo or AlphaScreen), InsR", "conditions": "biochemical tyrosine kinase assay", "method_in_brief": "(§1)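 Kinase-Glo format: baculovirus-expressed tagged kinase domain, poly(Glu-Tyr), 10 μM ATP, pH 7.5 Tris, MgCl2/MnCl2, DTT; 60 min at 37° C; remaining ATP by luciferase luminescence. Other kinases run identically, enzyme titrated to ≤30% ATP consumption. IC50 by non-linear regression, quadruplicates.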"}, "TrkA": {"biological_target": "T2, TrkA (Homo sapiens, UniProt P04629)", "T2 construct": "6×His- or GST-tagged kinase domain fragments of the corresponding RTKs expressed in baculovirus system; host or cells: baculovirus system", "T2 sequence (P04629 510-781 limits assumed, species assumed)": "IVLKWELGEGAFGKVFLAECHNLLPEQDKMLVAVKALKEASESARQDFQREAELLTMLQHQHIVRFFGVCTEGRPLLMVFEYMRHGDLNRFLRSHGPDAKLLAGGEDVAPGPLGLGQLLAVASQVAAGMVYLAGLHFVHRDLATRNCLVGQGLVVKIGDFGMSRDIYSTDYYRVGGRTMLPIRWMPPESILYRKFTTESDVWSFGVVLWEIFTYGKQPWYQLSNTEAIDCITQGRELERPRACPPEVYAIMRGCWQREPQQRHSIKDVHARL", "assay": "Tyrosine kinase assay (Kinase-Glo or AlphaScreen), TrkA", "conditions": "biochemical tyrosine kinase assay", "description": "To determine inhibition of several tyrosine kinases, such as IGF1R, InsR, Alk, TrkA and Jak2, kinase assays are conducted using either Kinase-Glo (Promega) or AlphaScreen (PerkinElmer) kinase assay platforms. The Kinase-Glo Luminescent Kinase Assay is a homogeneous method for measuring kinase activity by determining the amount of ATP remaining after a kinase reaction. The luminescent signal is proportional to the amount of ATP and inversely proportional to the amount of kinase activity. Tyrosine kinase PT66 AlphaScreen Assay is a high-sensitivity homogeneous, anti-phosphotyrosine antibody-mediated luminescent proximity method measuring, incorporation of phosphate in synthetic poly(Glu-Tyr) substrate. The kinase preparations used consist of purified recombinant, 6×His- or GST-tagged kinase domain fragments of the corresponding RTKs expressed in baculovirus system.\nThe IGF1R tyrosine kinase is assayed in Kinase-Glo ATP depletion assay using the synthetic polymer poly(Glu-Tyr, 4:1) (Sigma Chemicals) as a phosphoacceptor substrate. Each reaction mixture consists of a total volume of 10 μl and contains 40 ng of the enzyme, 5 μg of poly(Glu-Tyr), 10 μM of ATP and variable concentrations of test compounds. The mixtures also contain 50 mM Tris-HCl, pH 7.5; 5 mM MgCl2; 5 mM MnCl2; 2 mM DTT and 0.01% Tween 20. The reaction mixtures are incubated at 37° C. for 60 minutes and residual concentration of ATP in the mixture is determined by adding luciferase-containing Kinase-Glo (Promega) development reagent and counting luminescence levels using Fusion Universal Microplate Analyzer (PerkinElmer). Tested compounds are dissolved in dimethyl sulfoxide to a stock concentration of 10 mM and are typically evaluated in the assay at eight concentrations in 1 nM to 20 μM range, each in quadruplicate. […] IC50 values are derived by non-linear regression analysis using Prism 3.0 software (Graphpad Software). Other tyrosine kinases are assayed according to the same protocol after titrating amount of the enzyme to provide optimal signal-to-noise ratio and no more than 30% of total ATP consumption in the reaction conditions used.\nThe IGF1R tyrosine kinase is assayed in Phosphotyrosine (PT66 or PT 100) AlphaScreen chemiluminescent assay (PerkinElmer) according to the manufacturerer's recommendations. Each kinase reaction mixture consists of a total volume of 15 μl and contains 0.1-1 ng of the enzyme, 7 ng of biotinylated poly(Glu-Tyr) (Cis-Bio), 10 μM of ATP and variable concentrations of test compounds. The mixtures also contain 50 mM Tris-HCl, pH 7.5; 5 mM MgCl2; 5 mM MnCl2; 2 mM DTT and 0.01% Tween 20. The reaction mixtures are incubated at room temperature for 30 minutes. Ten (10) μl of the mixture of […] and donor beads (as supplied by the manufacturer) is then added to the reaction and the incubation is continued for an additional 60 minutes."}, "H929 (multiple myeloma)": {"tested_on": "H929 (multiple myeloma)", "assay": "Cell proliferation inhibition, Cell Titer-Glo, H929", "type": "cell-based", "conditions": "Homo sapiens, NCI-H929; cell proliferation assay, H929 cells", "method_in_brief": "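Cells seeded at 2500-5000 per well with serially diluted compound for typically 3 days. Viable cells measured by ATP luminescence (Cell Titer-Glo); IC50 from proliferation-inhibition curves.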"}, "K562": {"tested_on": "K562", "assay": "Cell proliferation inhibition, Cell Titer-Glo, K562", "type": "cell-based", "conditions": "Homo sapiens; cell proliferation assay, K562 cells", "method_in_brief": "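Proliferation inhibition in human K562 cells was assessed in a standard 3-day assay. Cells (2500-5000 per well) in 384-well white, clear-bottomed plates received serial compound dilutions, then Cell Titer-Glo reagent was added per the manufacturer's protocol. Luminescence reflecting ATP content of metabolically active cells was counted in a multiwell reader, and IC50 curves were generated.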"}, "Alk": {"biological_target": "T3, Alk (Homo sapiens, UniProt Q9UM73)", "T3 construct": "6×His- or GST-tagged kinase domain fragments of the corresponding RTKs expressed in baculovirus system; host or cells: baculovirus system", "T3 sequence (Q9UM73 1116-1392 limits assumed, species assumed)": "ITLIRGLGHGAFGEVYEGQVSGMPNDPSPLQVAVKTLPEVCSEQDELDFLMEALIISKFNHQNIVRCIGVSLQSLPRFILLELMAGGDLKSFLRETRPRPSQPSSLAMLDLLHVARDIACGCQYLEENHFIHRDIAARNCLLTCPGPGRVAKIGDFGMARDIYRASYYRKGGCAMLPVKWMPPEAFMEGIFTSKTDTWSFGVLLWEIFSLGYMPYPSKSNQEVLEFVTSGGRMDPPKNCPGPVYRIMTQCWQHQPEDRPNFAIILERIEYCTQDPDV", "assay": "Tyrosine kinase assay (Kinase-Glo or AlphaScreen), Alk", "conditions": "biochemical tyrosine kinase assay", "method_in_brief": "as §1"}, "[1]": {"tested_on": "HEK293 (human normal embryonic kidney)", "assay": "Cell proliferation inhibition, Cell Titer-Glo, HEK293", "type": "cell-based", "conditions": "cell proliferation assay, HEK293 cells, read-out: HEK 293 IC50", "description": "IGF1R and other tyrosine kinase inhibitors can inhibit the proliferation of certain cancer cell lines indicating their possible therapeutic utility for treating the corresponding cancer types. Cancer cell lines of interest and control normal lines, including CHO, HEK293, BA/F3, MM1, H929, COLO205, PC3, DU145, MCF7, Panc1, ACHN, Hep G2, H460, K562, TT, U87-G, CAOV-3, SK-MEL5, Karpas 299, are plated in white, clear-bottomed 384-well cell culture plates at 2500-5000 cells per well and supplied with dilutions of tested compounds After a desired period of time (typically 3 days), the number of viable cells is quantitated by using Cell Titer-Glo Luminescent Cell Viability Assay (Promega), a cell proliferation assay system based on detection of total amount of ATP present as a measure of cell metabolic activity. The plated cells are mixed with the Cell Titer-Glo developing reagent and counted in a luminescence multiwell plate reader according to the standard manufacturer's protocol to generate IC50 curves for cell proliferation inhibition.\nIGF1R and other tyrosine kinase inhibitors can inhibit the proliferation of certain cancer cell lines indicating their possible therapeutic utility for treating the corresponding cancer types. Cancer cell lines of interest and control normal lines, including CHO, HEK293, BA/F3, COLO205, PC3, DU145, MCF7, Panc1, ACHN, Hep G2, H460, K562, TT, U87-MG, CAOV-3, SK-MEL5, Karpas 299 and human multiple myeloma cell lines H929, MM1s, MM1r, UTMC2, CPM2, KMS11, My5, KMS12PE, My7, JJN3, KMS18, U266, SKMM2, RPMI-8226 are plated in white, clear-bottomed 384-well cell culture plates at 2500-5000 cells per well and supplied with dilutions of tested compounds After a desired period of time (typically 3 days), the number of viable cells is quantitated by using Cell Titer-Glo Luminescent Cell Viability Assay (Promega), a cell proliferation assay system based on detection of total amount of ATP present as a measure of cell metabolic activity. The plated cells are mixed with the Cell Titer-Glo developing reagent and counted in a luminescence multiwell plate reader according to the standard manufacturer's protocol to generate IC50 curves for cell proliferation inhibition. Results are typically reported as percent of growth (% viability =(OD72h(compound)−ODday0))/(OD72h(no compound)−ODday0). Alternatively, viable cells are quantitated by using the conventional colorimetric MTT assay. The MTT assay is based on the cleavage of the yellow tetrazolium salt MTT to purple formazan crystal by metabolic active cells. The formazan is then solubilized, and the concentration determined by optical density at 570 nm. The cells plated and incubated with a compound as described above are supplemented with the solution of MTT and incubated for 2-3 hours. The growth medium is removed and dimethyl sulfoxide is added into each well to dissolve the formazan. The absorbance is measured on an ELISA plate reader with a test wavelength of 570 nm and a background subtraction wavelength of 630 nm to obtain sample signal (OD570-OD630). […] The results are reported in terms of IC50 value for a particular compound and a cell line in the standard 3-day proliferation assay using Cell Titer-Glo. […] The results are reported in terms of IC50 value for a particular compound and a cell line in the standard 3-day proliferation assay using MTT assay."}, "IGF1R tyrosine kinase": {"biological_target": "T4, IGF1R tyrosine kinase (Homo sapiens, UniProt P08069)", "T4 construct": "6×His- or GST-tagged kinase domain fragments of the corresponding RTKs expressed in baculovirus system; host or cells: baculovirus system", "T4 sequence (P08069 999-1274 limits assumed)": "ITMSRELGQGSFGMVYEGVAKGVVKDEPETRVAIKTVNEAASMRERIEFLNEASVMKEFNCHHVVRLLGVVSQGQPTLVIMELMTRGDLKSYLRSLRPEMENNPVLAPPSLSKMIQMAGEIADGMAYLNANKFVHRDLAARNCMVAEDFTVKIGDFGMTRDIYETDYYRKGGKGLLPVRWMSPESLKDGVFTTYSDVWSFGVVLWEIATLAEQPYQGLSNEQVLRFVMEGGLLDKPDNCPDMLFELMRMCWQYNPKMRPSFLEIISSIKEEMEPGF", "assay": "IGF1R tyrosine kinase assay (Kinase-Glo ATP depletion or PT66/PT100 AlphaScreen)", "conditions": "biochemical tyrosine kinase assay", "method_in_brief": "as §1"}, "Jak2": {"biological_target": "T5, Jak2 (Homo sapiens, UniProt O60674)", "T5 construct": "6×His- or GST-tagged kinase domain fragments of the corresponding RTKs expressed in baculovirus system; host or cells: baculovirus system", "T5 sequence (O60674 849-1124 limits assumed, species assumed)": "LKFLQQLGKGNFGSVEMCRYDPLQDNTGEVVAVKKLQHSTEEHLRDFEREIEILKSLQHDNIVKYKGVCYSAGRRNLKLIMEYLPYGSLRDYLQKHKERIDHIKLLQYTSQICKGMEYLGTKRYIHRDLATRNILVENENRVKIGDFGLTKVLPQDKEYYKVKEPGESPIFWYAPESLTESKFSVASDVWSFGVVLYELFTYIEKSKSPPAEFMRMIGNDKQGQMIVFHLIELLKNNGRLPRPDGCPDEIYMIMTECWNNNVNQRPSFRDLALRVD", "assay": "Tyrosine kinase assay (Kinase-Glo or AlphaScreen), Jak2", "conditions": "biochemical tyrosine kinase assay", "method_in_brief": "as §1"}, "Ba/F3": {"tested_on": "Ba/F3", "assay": "Cell proliferation inhibition, Cell Titer-Glo, Ba/F3", "type": "cell-based", "conditions": "Mus musculus, BaF3; cell proliferation assay, Ba/F3 cells", "method_in_brief": "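This standard 3-day proliferation assay used Ba/F3 cells plated in 384-well white plates with clear bottoms at 2500-5000 cells per well and treated with compound dilutions. Viable cell number was determined by mixing in Cell Titer-Glo developing reagent according to the manufacturer's protocol and counting luminescence. Percent viability relative to day 0 and untreated wells produced IC50 curves.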"}, "Karpas-299": {"tested_on": "Karpas-299", "assay": "Cell proliferation inhibition, Cell Titer-Glo, Karpas-299", "type": "cell-based", "conditions": "Homo sapiens; cell proliferation assay, Karpas-299 cells", "method_in_brief": "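In this standard 3-day proliferation assay, Karpas 299 cells plated at 2500-5000 cells per well in 384-well white, clear-bottomed plates were treated with compound dilutions. Cell Titer-Glo developing reagent was added following the manufacturer's protocol, luminescence reflecting ATP content was read on a multiwell plate reader, and IC50 curves were generated.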"}}}
{"smiles": "CN1CCC(N2Cc3cc4nc(-c5c(NC[C@@H](O)c6cccc(Cl)c6)cc[nH]c5=O)[nH]c4cc3C2=O)CC1", "note": "[compound 16]", "values": [{"measurement": "IC50", "setting": "InsR", "value": "< 500", "unit": "nM"}, {"measurement": "IC50", "setting": "TrkA", "value": "< 500", "unit": "nM"}, {"measurement": "IC50", "setting": "H929 (multiple myeloma)", "value": "5 to 15", "unit": "µM"}, {"measurement": "IC50", "setting": "K562", "value": "> 15", "unit": "µM"}, {"measurement": "IC50", "setting": "Alk", "value": "< 0.5", "unit": "µM"}, {"measurement": "IC50", "setting": "[1]", "value": "5 to 15", "unit": "µM"}, {"measurement": "IC50", "setting": "IGF1R tyrosine kinase", "value": "< 500", "unit": "nM"}, {"measurement": "IC50", "setting": "Jak2", "value": "500 to 5000", "unit": "nM"}]}
{"smiles": "Cc1c(Cl)cccc1OC[C@H](O)CNc1cc[nH]c(=O)c1-c1nc2cc3c(cc2[nH]1)C(=O)N(C1CCN(C)CC1)C3", "note": "[compound 133]", "values": [{"measurement": "IC50", "setting": "InsR", "value": "< 500", "unit": "nM"}, {"measurement": "IC50", "setting": "TrkA", "value": "< 500", "unit": "nM"}, {"measurement": "IC50", "setting": "Alk", "value": "0.5 to 5", "unit": "µM"}, {"measurement": "IC50", "setting": "IGF1R tyrosine kinase", "value": "< 500", "unit": "nM"}, {"measurement": "IC50", "setting": "Jak2", "value": "< 500", "unit": "nM"}]}
{"smiles": "CN1CCC(N2Cc3cc4nc(-c5c(NC[C@@H](O)COc6c(F)ccc(Cl)c6F)cc[nH]c5=O)[nH]c4cc3C2=O)CC1", "note": "[compound 134]", "values": [{"measurement": "IC50", "setting": "InsR", "value": "< 500", "unit": "nM"}, {"measurement": "IC50", "setting": "TrkA", "value": "< 500", "unit": "nM"}, {"measurement": "IC50", "setting": "Alk", "value": "5 to 15", "unit": "µM"}, {"measurement": "IC50", "setting": "IGF1R tyrosine kinase", "value": "< 500", "unit": "nM"}, {"measurement": "IC50", "setting": "Jak2", "value": "< 500", "unit": "nM"}]}
{"smiles": "Cc1c(Cl)cccc1OC[C@H](O)CNc1cc[nH]c(=O)c1-c1nc2cc3c(cc2[nH]1)C(=O)N(C1CCN(CCCO)CC1)C3=O", "note": "[compound 135]", "values": [{"measurement": "IC50", "setting": "Ba/F3", "value": "> 15", "unit": "µM"}, {"measurement": "IC50", "setting": "InsR", "value": "500 to 5000", "unit": "nM"}, {"measurement": "IC50", "setting": "TrkA", "value": "< 500", "unit": "nM"}, {"measurement": "IC50", "setting": "H929 (multiple myeloma)", "value": "> 15", "unit": "µM"}, {"measurement": "IC50", "setting": "K562", "value": "> 15", "unit": "µM"}, {"measurement": "IC50", "setting": "Alk", "value": "0.5 to 5", "unit": "µM"}, {"measurement": "IC50", "setting": "Karpas-299", "value": "> 15", "unit": "µM"}, {"measurement": "IC50", "setting": "IGF1R tyrosine kinase", "value": "< 500", "unit": "nM"}, {"measurement": "IC50", "setting": "Jak2", "value": "500 to 5000", "unit": "nM"}]}
